Like-named read-outs stand apart in the source and are kept apart here.
Experiments:
[1] = tested on: live vaccinia virus (Dryvax); set-up: species or system A/NCr mice; settings: mouse, in vivo
orthopoxvirus = tested on: orthopoxvirus; set-up: species or system A/NCr mice; settings: mouse, in vivo
[2] = in vivo; cited from earlier work

Compound | Lesion score [1] | severity of vaccine lesions and healing [1] | Lesion score ([1]; 12.5 mg/kg) | post challenge anti-orthopoxvirus antibody titers, presence vs absence of CDV (orthopoxvirus) | pre-challenge anti-orthopoxvirus antibody titers, presence vs absence of CDV (orthopoxvirus) | oral bioavailability [2] | attenuation of lesion development and acceleration of lesion resolution, compared with CDV [1]
Nc1ccn(C[C@@H](CO)OCP(=O)(O)O)c(=O)n1 [Cidofovir] | 0 | decreased the severity of vaccine lesions and facilitated healing | 0 | similar | lower | low | 
hexadecyloxypropyl-CDV [HDP-CDV] |  | decreased the severity of vaccine lesions and facilitated healing |  |  |  |  | more efficacious than CDV

Reference: US8541167B2 (priority 2004, dated 2013)
